Reference: a melting point compilation (Tetko et al.; mined from patent text by program, amines drawn as free bases though some values may be those of a salt)

Row | Compound | melting point [°C]
1 | COc1ccc(Sc2nc(C)c(CC(=O)O)s2)nn1 | 143 to 144
2 | CCN(CC)CCNC(=O)c1cc(Cl)c(N)cc1OCCCN1C(=O)c2ccccc2C1=O | 141 to 143
3 | CCN(CC)c1cccc2nc3n(c12)CC(N)CCN3c1ccc(Cl)cc1Cl (centres undefined) | 149 to 151
4 | CCc1nnc2c(NC3CC3)nc3ccccc3n12 | 190 to 192
5 | CC(C)c1nn(-c2ccc(C(F)(F)F)nn2)cc1CCCO | 113 to 114
6 | COc1ccc(C(=O)Nc2nc(-c3ccco3)c(-c3ccncc3)s2)cc1 | 235 to 245
7 | O=C(OCC(Cl)(Cl)Cl)N1C2CCC1CC(Sc1ccc(F)cc1)C2 (centres undefined) | 65 to 67
8 | NC(=O)CCCN(Cc1ccc(Cl)cc1)Cc1ccc(Cl)cc1 | 66 to 76
9 | N#Cc1nc2cccc(O)c2s1 | 225
10 | CCCCCCCCCCCCCCCCCCOCC(CO)Oc1nccs1 (centres undefined) | 65 to 67
11 | CCOC(=O)CCn1c(-c2ccccc2)c(-c2ccccc2)n(-c2ccccc2)c1=O | 111 to 112
12 | CC(C)Oc1cc(CCCOc2ncccc2CC(=O)O)n(Cc2ccc(F)cc2Cl)n1 | 90 to 91
13 | COC(=O)c1ccc(OC)c(OC(C)(C)C)c1 | 98 to 100
14 | CCOCc1cc2cc(Cl)ccc2oc1=Nc1ccc(OC)cc1 | 136 to 138
15 | O=C(CO)Nc1ccccc1-c1nnc(C(c2ccc(Cl)cc2)c2c(Cl)cc(-n3ncc(=O)[nH]c3=O)cc2Cl)o1 (centres undefined) | 235
16 | CC(=O)ONC(=O)N1CCC(=Cc2cc(C(C)(C)C)c(O)c(C(C)(C)C)c2)C1=O | 165 to 166
17 | CCNC(Cc1ccc(O)cc1)C(=O)OCC (centres undefined) | 87 to 89
18 | Oc1ccc(-c2nnc(Cc3ccc(Oc4ccccc4)cc3)o2)cc1 | 202 to 203
19 | CC1OC1COc1ccc(C(=O)OC(C)(C)C)cc1 (centres undefined) | 47 to 48
20 | Cc1ccc(S(=O)(=O)NC2(c3ccccc3)C3=NCC(C)(C)CN3c3ccccc32)cc1 (centres undefined) | 224 to 226
21 | c1ccc(COc2cncc(N3CCNCC3)n2)cc1 | 155 to 156
22 | CC(C)n1nc(-c2c(Nc3ccccn3)nc(N)nc2-c2ccccc2)ccc1=O | 163 to 164
23 | Cc1ccc(-c2nn(-c3ccccc3C)c(N)c2C(N)=O)cc1 | 133 to 135
24 | COC(NC(C)=O)(C(=O)OC(C)(C)C)C(Br)Br (centres undefined) | 115 to 116
25 | O=C(N[C@@H]1CCc2ccccc21)C(F)(F)F | 152 to 153

Row | Compound | melting point [°C]
26 | CCOC(=O)c1cn(C2CC2)c2cc(N3C[C@@H](C)N[C@@H](C)C3)c(F)c(N)c2c1=O | 194 to 196
27 | O=C1NCCN(N=Cc2ccco2)C1=O | 193 to 197
28 | Cc1cc(F)ccc1Nc1c(C(=O)C(C)C)cnc2c(CO)cccc12 | 139 to 140
29 | CCOC(=O)c1c(Nc2ccc(Cl)cc2C)n[nH]c1C | 156 to 187
30 | CCCC(NS(=O)(=O)c1ccc(C)cc1)P(=O)(Oc1ccccc1)Oc1ccccc1 (centres undefined) | 178 to 180
31 | CC1CCC(=NNc2ccccc2)c2ncc(CC(=O)O)c(=O)n21 (centres undefined) | 160 to 162
32 | CCCCS(=O)(=O)NC(=O)c1ccc2nc(C)n(Cc3ccc(-c4ccccn4)cc3)c2c1 | 292 to 298
33 | CCOC(=O)N1CCC(O)(c2cccs2)CC1 | 242
34 | CCOC(=O)c1cc2c(C=O)ccc(OCc3ccccc3)c2[nH]1 | 131 to 132
35 | C#CCOc1ccc2c(c1)c(-c1ccc(C(C)C)cc1)nc(=O)n2Cc1cccc(NC(=O)CCl)c1 | 170 to 172
36 | CC(=O)N1CC2OC(C3OCCO3)(C1)c1ccccc12 (centres undefined) | 122 to 123
37 | CC(C)=Cc1ccc(C(C)C(=O)O)cc1 (centres undefined) | 53 to 54
38 | COCCn1c(=O)ccc2cnc(Nc3ccccc3)nc21 | 179 to 180
39 | CCCCNS(=O)(=O)c1cc(C(=O)O)cc([N+](=O)[O-])c1Cl | 199 to 201
40 | O=c1nc(-c2ccnc(N3CCN(c4ccc(F)cc4)CC3)c2)sc2ccccc12 | 233 to 234
41 | CNC(=O)N1CC(Oc2ccccc2C(F)(F)F)C1 | 134 to 136
42 | C=CCc1cc2c(c(CC=C)c1O)CCC(=O)N2CCCN1CCN(c2cccc(Cl)c2)CC1 | 118
43 | CS(=O)(=O)C(=C1CN(C(c2ccccc2)c2ccccc2)C1)c1cccc(C(N)=O)c1 | 140
44 | Oc1ccccc1CCCC1CCNCC1 | 152
45 | O=[N+]([O-])c1cc2nc(Cl)n(C3OC(CO)C(O)C3O)c2cc1[N+](=O)[O-] (centres undefined) | 132 to 135
46 | O=C(CC1(Sc2ccc(Oc3ccc(Cl)cc3)cc2)CCOCC1)NO | 50 to 55
47 | OC(COc1ccc(Cl)cc1Cl)(COc1ccc(Cl)cc1Cl)Cn1cncn1 | 136
48 | CCNc1ncn(Cc2ccc(OC)c(OC3CCCC3)c2)c2nc(C(C)C)nc1-2 | 205 to 207
49 | CC(C)(C)c1cc(-c2n[nH]c(=O)[nH]2)cc(C(C)(C)C)c1O | 276 to 280
50 | O=C(Nc1cccc(S(=O)(=O)NC2CC2)c1)c1cnn2c(C(F)F)cc(-c3ccc(C(F)(F)F)cc3)nc12 | 252

Row | Compound | melting point [°C]
51 | CC(C)[C@]1(CCc2ccc(O)cc2)CC(O)=C(Sc2cc(C(C)(C)C)cc3sc(N)nc23)C(=O)O1 | 168 to 179
52 | CCc1nn(CCNS(=O)(=O)c2cn(C)cn2)c(CC)c1Cc1cc(Cl)cc(Cl)c1 | 172 to 174
53 | CC1Nc2ccc(NC(=O)c3ccc(-c4ccccc4)cc3)cc2N1C (centres undefined) | 270
54 | Cc1cc(C#N)c(C)c(C(=O)Nc2ccc(Cl)cn2)n1 | 264
55 | O=C(O)c1cc2cc(F)ccc2n1Cc1ccncc1 | 282 to 283
56 | Cc1cc(C2C(=O)Oc3c2cc(C(C)(C)C)cc3C(C)(C)C)cc(C)c1OC(=O)C(C)(C)C (centres undefined) | 140 to 142
57 | COc1cccc(N(CC(=O)OC(C)(C)C)C(=O)CCl)c1 | 110
58 | CSCCCNC(=O)N(O)C[C@@H]1C[C@H]1c1ccccc1 (relative stereo) | 103 to 104
59 | Cn1[nH]c(=O)n(-c2ccc(Cl)cc2F)c1=S | 75
60 | CCN(CC)CCCN1CCN(c2cc(-c3ccnc(NCc4cccc(OC)c4)n3)cc3ccc(OC)cc23)CC1 | 156 to 160
61 | CCOC(=O)c1cnc2ccc(OC)cc2c1Cl | 93.7 to 95.7
62 | OC1CSC(Oc2cncc(-c3ccccc3)c2)C(O)C1O (centres undefined) | 169
63 | CNC(=O)N(C)c1ccc(Cl)c(COc2cccn3c(Br)c(C)nc23)c1Cl | 192 to 193
64 | Cn1cncc1C(O)c1ccc2nc(Cl)nc(-c3cccc(Cl)c3)c2c1 (centres undefined) | 140
65 | CCCN(CCC)C(=O)Cc1c(-c2ccc(C)cc2)nn2cccnc12 | 110 to 111
66 | CC(C)(Oc1ccc(OCCOc2cc(C(C)(C)C)c(O)c(C(C)(C)C)c2)cc1)C(=O)O | 124
67 | C=C(C(=O)c1ccc(C(=O)NCCN2CCOCC2)cc1)c1cc(OC)c(OC)c(-c2cccs2)c1 | 84 to 87
68 | O=C(NCc1ccccc1)c1ccnc(NC(=O)c2cccc(C(F)(F)F)c2)c1 | 87 to 88
69 | COc1cccc2c(Sc3nc(C)c(CC(=O)O)s3)cc(C(=O)O)nc12 | 176 to 179
70 | CNc1cccc(C(C)=O)c1OCCCN1CCC(c2noc3cc(F)ccc23)CC1 | 151 to 153
71 | CC1CN(c2cccc(C(F)(F)F)c2)N=C1NC(=O)C(F)(F)F (centres undefined) | 121 to 122
72 | CCCCCN1C(=O)C(CO)(c2ccc3c(c2)OCO3)c2ccccc21 (centres undefined) | 110 to 113
73 | CS(=O)(=O)NCc1ccc(-n2c(-c3cccnc3N)nc3cc(-c4cccnc4)cnc32)cc1 | 127 to 129
74 | Cn1c(C(F)(F)F)cc(=O)n(-c2cc(OC(=O)Oc3ccccc3)c(Cl)cc2F)c1=O | 112 to 115
75 | NC(=O)N1CCN(c2n[nH]c3ccccc23)CC1 | 158 to 160

Row | Compound | melting point [°C]
76 | COCCNC(=O)c1ccc(C)c(-n2c(C)cc(OCc3ccc(F)cc3CNC(=O)Nc3cc(C(C)(C)C)nn3-c3ccc(Cl)c(O)c3)c(Cl)c2=O)c1 | 186 to 187
77 | O=C(NC1CCC(CCN2CCN(c3nccc4c3CCO4)CC2)CC1)c1ccc(N2CCS(=O)(=O)CC2)cc1 (centres undefined) | 262
78 | COc1cc2c(cc1OC)C1C(CO)CSC(C=N)N1CC2 (centres undefined) | 149 to 151
79 | CC(C)c1nc(C(C)C)c(CNC2CCCCC2)c(-c2ccc(F)cc2)c1CO | 131 to 133
80 | Cn1c2cc(Cl)ccc2c2c(C(=O)N3CCCC3)nc(-c3ccncc3)nc21 | 256 to 258
81 | O=C(NCCn1cncn1)c1ccc(Cl)nc1 | 186 to 188
82 | CCn1nnnc1C(C=CC=O)=C(c1ccc(F)cc1)c1ccc(F)cc1 | 163 to 165
83 | CN1C(=S)[C@H](NC(=O)OCc2ccccc2)N=C(c2ccccc2)c2ccccc21 | 128 to 131
84 | COC(=O)Cc1cc([N+](=O)[O-])c(OC)c2c1N(C(C)=O)CC2 | 181 to 182
85 | Nc1ccnc(Cl)c1Cl | 146 to 148
86 | O=C(O)c1nc2n(n1)-c1cccnc1N(C1CCCCC1)C2 | 170 to 176
87 | O=C(c1cc(O)cc2cc(-c3ccc(O)cc3)oc12)C(F)(F)F | 215 to 216
88 | CC(=O)SCCC(=O)N1[C@@H](c2ccccc2O)SC[C@H]1C(=O)N(c1ccccc1)[C@@H](C)C(=O)O | 91 to 95
89 | COc1ccc(Cc2ccc3c(c2)OCO3)cc1C | 95
90 | O=C(N[C@H]1CC[C@H](CCN2CCN(c3nccc4c3OCC4)CC2)CC1)C(F)(F)F | 198
91 | CCc1cc2ccccn2c1C(=O)c1ccc(OS(=O)(=O)c2ccc(C)cc2)cc1 | 165
92 | Cc1cc(Oc2ccc(C(F)(F)F)cc2Cl)cc(C)c1N | 104 to 105
93 | COCCOc1ncnc2[nH]ccc12 | 137 to 139
94 | COC(=O)c1cccn2ccnc12 | 67 to 69
95 | COc1ccc2cccc3c2c1C(=O)N(O)C3=O | 205 to 206
96 | O=C(O)c1ccc2c(c1)S(=O)(=O)c1ccccc1C2=O | 285 to 287
97 | Cc1ccc2c(Cc3nc4c(F)c(F)cc(F)c4s3)cn(CC(=O)O)c2c1 | 211 to 213
98 | O=C(O)CCCCCCCCN1NNN=C1C(c1ccccc1)c1ccccc1 | 68 to 70
99 | COCc1cc(C2=NOC(c3cc(Cl)cc(Cl)c3)(C(F)(F)F)C2)ccc1C(=O)NC(=N)OC (centres undefined) | 132 to 134
